Results on 14 compounds are retold here after article PMC7570966 (Molecules, 2020).

T1 sequence (O42275 24-633): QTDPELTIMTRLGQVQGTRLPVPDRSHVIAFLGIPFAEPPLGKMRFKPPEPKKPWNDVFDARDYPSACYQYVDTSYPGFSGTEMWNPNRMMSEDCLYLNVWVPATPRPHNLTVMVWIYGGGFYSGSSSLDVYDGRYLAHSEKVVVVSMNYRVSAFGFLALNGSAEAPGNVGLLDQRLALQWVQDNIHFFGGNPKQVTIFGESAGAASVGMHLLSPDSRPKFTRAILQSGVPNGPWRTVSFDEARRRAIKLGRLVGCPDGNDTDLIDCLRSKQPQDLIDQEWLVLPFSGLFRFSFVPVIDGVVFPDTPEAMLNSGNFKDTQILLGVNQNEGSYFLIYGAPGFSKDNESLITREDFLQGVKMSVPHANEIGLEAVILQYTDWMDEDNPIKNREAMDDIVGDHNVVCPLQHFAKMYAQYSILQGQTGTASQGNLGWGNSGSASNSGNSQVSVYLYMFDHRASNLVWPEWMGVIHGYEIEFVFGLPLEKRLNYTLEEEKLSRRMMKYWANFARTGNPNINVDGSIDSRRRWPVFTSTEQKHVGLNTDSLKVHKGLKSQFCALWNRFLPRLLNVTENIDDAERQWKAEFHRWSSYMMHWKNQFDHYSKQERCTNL

One experiment concerns the target T1, acetylcholinesterase (AChE) (Electrophorus electricus, UniProt O42275).
T1 construct: purchased Sigma–Aldrich (St. Louis, MO, USA)
Put plainly: biochemical. To be noted: Ellman's method, pH 8, triplicate. (Ellman's reagent forms a yellow product with free thiols.)
Method: AChE inhibitory activities of the synthesized flavone derivatives were determined by Ellman’s method [45]. […] The assay was performed as described earlier [46] in 96-well microtiter plates using the EMR-500 ELISA system (Labomed, Los Angeles, CA, USA). Each well of the plate contained a mixture of sodium phosphate buffer pH 8, sample (studied compounds or reference), acetylcholinesterase, ATCI, and 5,5′-dithio-bisnitrobenzoic acid (DTNB). The absorbance was recorded at 405 nm. All samples were assayed in triplicate.
For the compound `O=c1cc(-c2ccccc2)oc2cc(OCc3ccccc3)c(OCc3ccccc3)c(OCc3ccccc3)c12` [Compound B6, 5,6,7-Tribenzyloxyflavone], the IC50 stood at 80.3 µM.

In turn, `COc1cc(OC)c2c(=O)cc(-c3ccc(OC)c(OC)c3)oc2c1` [Compound D5, 3’,4’,5,7-Tetramethoxyflavone] came in with an IC50 of 73.8 µM.

With `C=CCOc1cc2oc(-c3ccccc3)cc(=O)c2c(O)c1OCC=C` [Compound B4, 6,7-Diallyloxy-5-hydroxyflavone], the IC50 was determined as 51.8 µM.

With `CCC(=O)Oc1cc2oc(-c3ccccc3)cc(=O)c2c(OC(=O)CC)c1OC(=O)CC` [Compound B8, 5,6,7-Tripropionoxyflavone], the IC50 was 66.2 µM.

In turn, `CCOc1cc(OCC)c2c(=O)cc(-c3ccc(OC)c(OCC)c3)oc2c1` [Compound D6, 3′,5,7-Triethoxy-4′-methoxyflavone] had an IC50 of 75.9 µM.

In turn, `COc1cc(O)c2c(=O)cc(-c3ccc(OC)c(OC)c3)oc2c1` [Compound D2, 5-Hydroxy-3’,4’,7-trimethoxyflavone] came in with an IC50 of 87.1 µM.

Turning to `O=c1cc(-c2ccccc2)oc2cc(O)c(O)c(O)c12` [Compound B1, Baicalein], the IC50 was determined as 37.1 µM.

Compound `C=CCOc1cc(O)c2c(=O)cc(-c3ccc(OC)c(OCC=C)c3)oc2c1` [Compound D4, 3’,7-Diallyloxy-5-hydroxy-4’-methoxyflavone] had an IC50 of 151 µM.

The compound `CCOc1cc2oc(-c3ccccc3)cc(=O)c2c(O)c1OCC` [Compound B3, 6,7-Diethoxy-5-hydroxyflavone] had an IC50 of 30 µM.

`CC(=O)Oc1cc2oc(-c3ccccc3)cc(=O)c2c(OC(C)=O)c1OC(C)=O` [Compound B7, 5,6,7-Triacetoxyflavone] showed an IC50 of 51.3 µM.

For the compound `CCOc1cc(O)c2c(=O)cc(-c3ccc(OC)c(OCC)c3)oc2c1` [Compound D3, 3’,7-Diethoxy-5-hydroxy-4’-methoxyflavone], the IC50 was determined as 129 µM.

In turn, `COc1ccc(-c2cc(=O)c3c(O)cc(OC(=O)c4ccccc4)cc3o2)cc1OC(=O)c1ccccc1` [Compound D7, 3’,7-Dibenzoyloxy-5-hydroxy-4’-methoxyflavone] yielded an IC50 of 340 µM.

As for `COc1cc2oc(-c3ccccc3)cc(=O)c2c(O)c1OC` [Compound B2, 5-Hydroxy-6,7-dimethoxyflavone], the IC50 is 25.5 µM.

Compound `C=CCOc1cc2oc(-c3ccccc3)cc(=O)c2c(OCC=C)c1OCC=C` [Compound B5, 5,6,7-Triallyloxyflavone] registered an IC50 of 191 µM.

For another experiment, the target named is T2, β-secretase (BACE-1) (Homo sapiens, UniProt P56817).
T2 construct: purchased Sigma–Aldrich
T2 sequence (P56817 46-501): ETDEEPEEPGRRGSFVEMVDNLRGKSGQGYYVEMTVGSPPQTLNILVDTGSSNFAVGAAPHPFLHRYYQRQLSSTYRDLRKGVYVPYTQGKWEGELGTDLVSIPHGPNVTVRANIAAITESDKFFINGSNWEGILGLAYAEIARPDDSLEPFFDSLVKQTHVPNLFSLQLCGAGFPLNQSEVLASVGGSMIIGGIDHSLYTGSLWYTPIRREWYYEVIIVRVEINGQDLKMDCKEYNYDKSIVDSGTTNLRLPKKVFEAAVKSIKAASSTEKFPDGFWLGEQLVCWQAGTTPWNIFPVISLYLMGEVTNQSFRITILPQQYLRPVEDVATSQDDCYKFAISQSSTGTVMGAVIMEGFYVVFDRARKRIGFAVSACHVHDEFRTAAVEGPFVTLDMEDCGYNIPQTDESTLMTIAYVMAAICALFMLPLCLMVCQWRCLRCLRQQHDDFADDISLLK
Put plainly: biochemical. As to conditions: BACE-1 IC50, fluorescence kit, 2 h incubation at 37 °C.
From the text: A fluorescence β-Secretase (BACE-1) Activity Detection Kit was purchased from Sigma–Aldrich and used to determine the effect of the synthesized flavone derivatives on β-secretase activity. […] The enzyme solution was reacted with the substrate (7-methoxycumarin-4-acetyl-(Asn670, Lue671)-amyloid β/A4 precursor protein 770 fragment 667–676-(2,4-dinitrophenyl))Lys-Arg-Arg amide trifluoroacetate salt and sulfated polysaccharide samples in a fluorescence assay buffer in different wells. Baseline readings were measure immediately on an F-7000 fluorescence spectrophotometer (Hitachi, Tokyo, Japan; excitation: 320 nm; emission: 405 nm) and repeated after 2 h incubation at 37 °C.
`COc1cc(OC)c2c(=O)cc(-c3ccc(OC)c(OC)c3)oc2c1` [Compound D5, 3’,4’,5,7-Tetramethoxyflavone] gave an IC50 of 1.66 µM.

The same experiment, now with this note: BACE-1 Obs. pIC50, observed, -logIC50.
In turn, `COc1cc(OC)c2c(=O)cc(-c3ccc(OC)c(OC)c3)oc2c1` [Compound D5, 3’,4’,5,7-Tetramethoxyflavone] gave an IC50 of 1.66 µM.

Staying with this experiment, now noted: fluorescence kit, 2 h incubation at 37 °C; read-out: BACE-1 IC50.
On to `O=c1cc(-c2ccccc2)oc2cc(OCc3ccccc3)c(OCc3ccccc3)c(OCc3ccccc3)c12` [Compound B6, 5,6,7-Tribenzyloxyflavone], for which the IC50 was 12.6 µM.

In the case of `C=CCOc1cc2oc(-c3ccccc3)cc(=O)c2c(O)c1OCC=C` [Compound B4, 6,7-Diallyloxy-5-hydroxyflavone], the IC50 is 70.8 µM.

On to `CCC(=O)Oc1cc2oc(-c3ccccc3)cc(=O)c2c(OC(=O)CC)c1OC(=O)CC` [Compound B8, 5,6,7-Tripropionoxyflavone], for which the IC50 amounted to 22.4 µM.

As for `CCOc1cc(OCC)c2c(=O)cc(-c3ccc(OC)c(OCC)c3)oc2c1` [Compound D6, 3′,5,7-Triethoxy-4′-methoxyflavone], the IC50 is 1.58 µM.

As to `COc1cc(O)c2c(=O)cc(-c3ccc(OC)c(OC)c3)oc2c1` [Compound D2, 5-Hydroxy-3’,4’,7-trimethoxyflavone], the IC50 amounted to 2.14 µM.

Take `C=CCOc1cc(O)c2c(=O)cc(-c3ccc(OC)c(OCC=C)c3)oc2c1` [Compound D4, 3’,7-Diallyloxy-5-hydroxy-4’-methoxyflavone]: the IC50 was 3.6 µM.

For the compound `CCOc1cc2oc(-c3ccccc3)cc(=O)c2c(O)c1OCC` [Compound B3, 6,7-Diethoxy-5-hydroxyflavone], the IC50 is 3.98 µM.

As to `CC(=O)Oc1cc2oc(-c3ccccc3)cc(=O)c2c(OC(C)=O)c1OC(C)=O` [Compound B7, 5,6,7-Triacetoxyflavone], the IC50 stood at 31.6 µM.

`CCOc1cc(O)c2c(=O)cc(-c3ccc(OC)c(OCC)c3)oc2c1` [Compound D3, 3’,7-Diethoxy-5-hydroxy-4’-methoxyflavone]: the IC50 was determined as 3.16 µM.

`COc1ccc(-c2cc(=O)c3c(O)cc(OC(=O)c4ccccc4)cc3o2)cc1OC(=O)c1ccccc1` [Compound D7, 3’,7-Dibenzoyloxy-5-hydroxy-4’-methoxyflavone]: the IC50 was 2.86 µM.

On to `COc1cc2oc(-c3ccccc3)cc(=O)c2c(O)c1OC` [Compound B2, 5-Hydroxy-6,7-dimethoxyflavone], for which the IC50 worked out at 43.6 µM.

With `C=CCOc1cc2oc(-c3ccccc3)cc(=O)c2c(OCC=C)c1OCC=C` [Compound B5, 5,6,7-Triallyloxyflavone], the IC50 is 17 µM.

The experiment is the same for the next values; noted with them: observed, -logIC50; read-out: BACE-1 Obs. pIC50 (converted).
For `O=c1cc(-c2ccccc2)oc2cc(OCc3ccccc3)c(OCc3ccccc3)c(OCc3ccccc3)c12` [Compound B6, 5,6,7-Tribenzyloxyflavone], the IC50 is 12.6 µM.

On to `C=CCOc1cc2oc(-c3ccccc3)cc(=O)c2c(O)c1OCC=C` [Compound B4, 6,7-Diallyloxy-5-hydroxyflavone], for which the IC50 was 70.8 µM.

For the compound `CCC(=O)Oc1cc2oc(-c3ccccc3)cc(=O)c2c(OC(=O)CC)c1OC(=O)CC` [Compound B8, 5,6,7-Tripropionoxyflavone], the IC50 is 22.4 µM.

As for `CCOc1cc(OCC)c2c(=O)cc(-c3ccc(OC)c(OCC)c3)oc2c1` [Compound D6, 3′,5,7-Triethoxy-4′-methoxyflavone], the IC50 is 1.58 µM.

In the case of `COc1cc(O)c2c(=O)cc(-c3ccc(OC)c(OC)c3)oc2c1` [Compound D2, 5-Hydroxy-3’,4’,7-trimethoxyflavone], the IC50 was 2.14 µM.

On to `C=CCOc1cc(O)c2c(=O)cc(-c3ccc(OC)c(OCC=C)c3)oc2c1` [Compound D4, 3’,7-Diallyloxy-5-hydroxy-4’-methoxyflavone], for which the IC50 is 3.63 µM.

With `CCOc1cc2oc(-c3ccccc3)cc(=O)c2c(O)c1OCC` [Compound B3, 6,7-Diethoxy-5-hydroxyflavone], the IC50 is 3.98 µM.

Turning to `CC(=O)Oc1cc2oc(-c3ccccc3)cc(=O)c2c(OC(C)=O)c1OC(C)=O` [Compound B7, 5,6,7-Triacetoxyflavone], the IC50 was 31.6 µM.

In the case of `CCOc1cc(O)c2c(=O)cc(-c3ccc(OC)c(OCC)c3)oc2c1` [Compound D3, 3’,7-Diethoxy-5-hydroxy-4’-methoxyflavone], the IC50 was 3.16 µM.

As for `COc1ccc(-c2cc(=O)c3c(O)cc(OC(=O)c4ccccc4)cc3o2)cc1OC(=O)c1ccccc1` [Compound D7, 3’,7-Dibenzoyloxy-5-hydroxy-4’-methoxyflavone], the IC50 was 2.88 µM.

Regarding `COc1cc2oc(-c3ccccc3)cc(=O)c2c(O)c1OC` [Compound B2, 5-Hydroxy-6,7-dimethoxyflavone], the IC50 is 43.7 µM.

As to `C=CCOc1cc2oc(-c3ccccc3)cc(=O)c2c(OCC=C)c1OCC=C` [Compound B5, 5,6,7-Triallyloxyflavone], the IC50 was 17 µM.
